{"source": "paper PMC7366380", "about": "“Discovery of a Potent and Selective Covalent Inhibitor and Activity-Based Probe for the Deubiquitylating Enzyme UCHL1, with Antifibrotic Activity” (Journal of the American Chemical Society, 2020)", "key": {"[1]": {"target": "T1, USP35 (Homo sapiens, UniProt Q9P2H5)", "T1 sequence (Q9P2H5 1-1018)": "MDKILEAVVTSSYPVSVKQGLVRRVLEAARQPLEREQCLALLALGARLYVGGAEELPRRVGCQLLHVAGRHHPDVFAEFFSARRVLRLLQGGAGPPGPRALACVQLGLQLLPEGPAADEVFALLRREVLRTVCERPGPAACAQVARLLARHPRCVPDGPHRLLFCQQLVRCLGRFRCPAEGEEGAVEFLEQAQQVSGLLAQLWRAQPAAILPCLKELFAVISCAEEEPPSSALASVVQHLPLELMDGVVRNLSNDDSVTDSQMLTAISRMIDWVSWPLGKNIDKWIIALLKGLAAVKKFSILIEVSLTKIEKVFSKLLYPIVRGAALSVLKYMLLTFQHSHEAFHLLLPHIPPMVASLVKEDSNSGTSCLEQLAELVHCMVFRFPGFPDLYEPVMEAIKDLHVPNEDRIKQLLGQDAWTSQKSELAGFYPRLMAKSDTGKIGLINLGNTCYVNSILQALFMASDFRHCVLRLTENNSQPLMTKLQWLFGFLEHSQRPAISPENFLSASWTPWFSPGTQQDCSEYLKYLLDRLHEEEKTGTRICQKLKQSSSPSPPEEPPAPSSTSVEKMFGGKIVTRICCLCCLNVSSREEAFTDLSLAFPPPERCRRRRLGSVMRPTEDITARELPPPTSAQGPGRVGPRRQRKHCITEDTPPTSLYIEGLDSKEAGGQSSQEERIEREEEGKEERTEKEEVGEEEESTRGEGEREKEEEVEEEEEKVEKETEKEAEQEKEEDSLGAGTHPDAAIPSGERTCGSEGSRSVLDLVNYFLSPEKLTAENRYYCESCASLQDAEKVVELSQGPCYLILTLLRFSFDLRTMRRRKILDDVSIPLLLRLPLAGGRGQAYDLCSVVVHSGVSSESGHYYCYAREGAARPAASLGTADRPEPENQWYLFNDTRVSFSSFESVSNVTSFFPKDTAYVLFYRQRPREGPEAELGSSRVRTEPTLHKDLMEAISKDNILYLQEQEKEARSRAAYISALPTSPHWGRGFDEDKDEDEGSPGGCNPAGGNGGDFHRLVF", "experiment": "Biochemical DUB selectivity profiling assay: USP35", "conditions": "Ub-Lys-TAMRA 50 nM, buffer B; read-out: Biochemical IC50 range, USP35", "experimental": "(§1) DUB Assay Substrate Substrate\n(§2) Buffer Concentration (nM) […]\n(§3) Sepharose® 4B resin (GE Healthcare).\n(§4) 10 kDa molecular weight cut-off (MWCO)).\n(§5) Fractions containing protein\n(§6) Protein concentration was […]\n(§7) reaction volume of 21 μL. […]\n(§8) compound (final concentration 5 nM).\n(§9) IC50 values were determined\n(§10) Biochemical DUB selectivity profiling assays […]\n(§11) in 40 µL total reaction volume."}, "[2]": {"target": "T2, UCHL5 (Homo sapiens, UniProt Q9Y5K5)", "T2 sequence (Q9Y5K5 1-329)": "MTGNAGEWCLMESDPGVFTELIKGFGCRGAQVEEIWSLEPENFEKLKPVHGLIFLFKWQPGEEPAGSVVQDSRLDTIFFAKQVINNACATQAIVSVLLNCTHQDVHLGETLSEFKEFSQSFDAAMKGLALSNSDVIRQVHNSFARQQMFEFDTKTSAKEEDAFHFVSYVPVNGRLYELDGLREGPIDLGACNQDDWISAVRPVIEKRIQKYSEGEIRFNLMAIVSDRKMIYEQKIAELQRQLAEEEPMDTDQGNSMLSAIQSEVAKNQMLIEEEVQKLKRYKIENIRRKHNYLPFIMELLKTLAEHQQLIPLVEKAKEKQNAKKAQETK", "experiment": "biochemical"}, "[3]": {"target": "T3, USP25 (Homo sapiens, UniProt Q9UHP3)", "T3 sequence (Q9UHP3 1-1055)": "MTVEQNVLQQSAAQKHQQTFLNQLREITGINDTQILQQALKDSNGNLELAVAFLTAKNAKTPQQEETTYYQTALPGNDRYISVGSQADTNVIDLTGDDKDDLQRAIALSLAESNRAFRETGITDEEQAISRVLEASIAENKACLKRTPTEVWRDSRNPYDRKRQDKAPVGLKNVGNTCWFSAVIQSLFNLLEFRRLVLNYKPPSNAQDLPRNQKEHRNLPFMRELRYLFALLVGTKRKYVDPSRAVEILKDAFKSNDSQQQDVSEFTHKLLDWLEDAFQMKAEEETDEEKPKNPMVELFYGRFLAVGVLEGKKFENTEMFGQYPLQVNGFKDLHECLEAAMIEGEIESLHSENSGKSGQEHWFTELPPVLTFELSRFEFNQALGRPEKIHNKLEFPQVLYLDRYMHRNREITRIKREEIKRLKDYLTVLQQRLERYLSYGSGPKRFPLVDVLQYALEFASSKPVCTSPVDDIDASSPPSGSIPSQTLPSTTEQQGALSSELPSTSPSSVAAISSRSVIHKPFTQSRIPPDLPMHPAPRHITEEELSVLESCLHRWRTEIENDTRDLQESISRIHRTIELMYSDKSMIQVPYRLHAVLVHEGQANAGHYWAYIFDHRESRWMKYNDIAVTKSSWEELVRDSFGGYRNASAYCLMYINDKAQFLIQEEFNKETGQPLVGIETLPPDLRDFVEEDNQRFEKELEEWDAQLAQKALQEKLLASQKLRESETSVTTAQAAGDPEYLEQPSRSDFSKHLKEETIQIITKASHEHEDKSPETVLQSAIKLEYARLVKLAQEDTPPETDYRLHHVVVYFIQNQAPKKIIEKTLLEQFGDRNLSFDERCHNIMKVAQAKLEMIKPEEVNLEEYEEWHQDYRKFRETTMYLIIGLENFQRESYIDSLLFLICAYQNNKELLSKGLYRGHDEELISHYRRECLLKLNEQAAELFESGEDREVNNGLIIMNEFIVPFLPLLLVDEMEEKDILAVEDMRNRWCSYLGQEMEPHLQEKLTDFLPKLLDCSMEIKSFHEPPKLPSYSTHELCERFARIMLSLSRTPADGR", "experiment": "Biochemical DUB selectivity profiling assay: USP25", "conditions": "Ub-Lys-TAMRA 50 nM, buffer B; read-out: Biochemical IC50 range, USP25", "experimental": "as §1, §2, §3, §4, §5, §6, §7, §8, §9, §10, §11"}, "[4]": {"target": "T4, UCHL1 (Homo sapiens, UniProt P09936)", "T4 sequence (P09936 1-223)": "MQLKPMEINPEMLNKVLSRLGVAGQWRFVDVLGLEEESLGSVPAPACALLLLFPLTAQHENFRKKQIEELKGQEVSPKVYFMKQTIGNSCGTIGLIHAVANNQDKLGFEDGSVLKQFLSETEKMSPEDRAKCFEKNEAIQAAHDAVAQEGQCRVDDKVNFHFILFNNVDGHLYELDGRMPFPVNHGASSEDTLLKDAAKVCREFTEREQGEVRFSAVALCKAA", "experiment": "biochemical"}, "[5]": {"conditions": "Biochemical IC50 range, UCHL1, Ub-Lys-TAMRA 50 nM, buffer A"}, "[6]": {"conditions": "UCHL1 IC50 (FP, 95% CI), UCHL1 5 nM, 30 min preincubation, Ub-Lys-TAMRA 50 nM"}}}
{"smiles": "CC(=O)O/N=C1\\C(=O)N(Cc2cc(Cl)ccc2Cl)c2ccc(Cl)cc21", "note": "[LDN-57444, reference compound]", "values": [{"measurement": "IC50", "setting": "[1]", "result": "> 10", "unit": "µM"}, {"measurement": "IC50", "setting": "[2]", "result": "> 10", "unit": "µM"}, {"measurement": "IC50", "setting": "[3]", "result": "> 10", "unit": "µM"}]}
{"smiles": "N#CN1CCC[C@@H]1C(=O)N1CCc2c(-c3c[nH]c4ncccc34)cccc21", "note": "[Compound 3]", "values": [{"measurement": "IC50", "setting": "[1]", "result": "> 10", "unit": "µM"}, {"measurement": "IC50", "setting": "[2]", "result": "> 10", "unit": "µM"}, {"measurement": "IC50", "setting": "[4]; [5]", "result": "> 10", "unit": "µM"}, {"measurement": "IC50", "setting": "[4]; UCHL1 IC50 (FP), UCHL1 5 nM, 30 min preincubation, Ub-Lys-TAMRA 50 nM, bound = maximum assay concentration", "result": "> 100", "unit": "µM"}, {"measurement": "IC50", "setting": "[3]", "result": "> 10", "unit": "µM"}]}
{"smiles": "N#CN1CCC[C@H]1C(=O)N1CCc2c(-c3c[nH]c4ncccc34)cccc21", "note": "[Compound 1]", "values": [{"measurement": "IC50", "setting": "[1]", "result": "> 10", "unit": "µM"}, {"measurement": "IC50", "setting": "[2]", "result": "> 10", "unit": "µM"}, {"measurement": "IC50", "setting": "[4]; [5]", "result": "< 0.1", "unit": "µM"}, {"measurement": "IC50", "setting": "[4]; [6]", "result": 0.09, "unit": "µM"}, {"measurement": "IC50", "setting": "[3]", "result": "> 10", "unit": "µM"}]}
{"smiles": "C#Cc1cnc2[nH]cc(-c3cccc4c3CCN4C(=O)[C@@H]3CCCN3C#N)c2c1", "note": "[Compound 2]", "values": [{"measurement": "IC50", "setting": "[1]", "result": "> 10", "unit": "µM"}, {"measurement": "IC50", "setting": "[4]; [5]", "result": "< 0.1", "unit": "µM"}, {"measurement": "IC50", "setting": "[4]; [6]", "result": 0.038, "unit": "µM"}, {"measurement": "IC50", "setting": "[3]", "result": "> 10", "unit": "µM"}]}
